Structures can show the parent of a compound that is named as a salt.
Assays:
ischemic brain = experiment: Effect of protecting ischemic brain (survival time after ligation of both carotid arteries); format: in vivo, ICR mice; conditions: for Average survival time (min) (average ± S.E.): maximum 6 h, control group 149.9 ± 25.8; for %: survival time relative to control group (100)
Procedure: Carotid arteries of both sides of ICR mice (6 to 8 weeks old) were exposed under halothane anesthesia and ligated. The mice thus treated had stroke symptoms such as jumping, rolling and convulsion and almost all of them died within 24 h.
The compound of the present invention was administered orally to the mice one hour before the ligation and the survival time (maximum: 6 h) was examined as an index of the effect of protecting eschemic brain. In this experiment, the compound was used in the form of a 5% suspension in acacia and a 5% acacia solution was given to the control group.

[1] = tested on: nerve cells in the CAI region of the hippocampus; experiment: Effect of protecting cells from disorder after ischemia (nerve cell count in hippocampus); format: in vivo, Mongolian gerbils; conditions: counted after one week, normal group 287 ± 6, control group 21 ± 10
Procedure: Carotid arteries on both sides of Mongolian gerbils were blocked to realize cerebral ischemia for 5 min. As a result, the nerve cells in the CAI region of the hippocampus disappeared extensively [Karino, T.: Brain Res., 239, 57 to 69 (1982)].
The compound of the present invention was administered orally to them, while a 5% acacia suspension was administered to the control group. After one hour, the ischemia was realized for 5 min. After one week, the animal was perfused and fixed with 4% neutral formalin transcardially. The treated sample was embedded in paraffin and cut to obtain slices having a thickness of 3 µm. The slices were dyed with hematoxylin-eosin and the number of the nerve cells in the CAI region of the hippocampus of each slice was counted.
The nerve cell density in the CAI region of the hippocampus was 287/mm in the normal (pseudo-operation) group and that of the control group was as small as 21/mm. Namely, a serious disappearance of the cell was caused by the 5-min ischemia. […]

[2] = 3 mg/kg p.o. one hour before ligation
[3] = 10 mg/kg p.o. one hour before ligation
[4] = 30 mg/kg p.o. one hour before ligation
[5] = 10 mg/kg p.o. one hour before 5-min ischemia
[6] = 30 mg/kg p.o. one hour before 5-min ischemia

Row | Compound | Average survival time (min) (average ± S.E.) (ischemic brain; [2]) | Average survival time (min) (average ± S.E.) (ischemic brain; [3]) | Average survival time (min) (average ± S.E.) (ischemic brain; [4]) | % (ischemic brain; 3 mg/kg p.o.) | % (ischemic brain; 10 mg/kg p.o.) | % (ischemic brain; 30 mg/kg p.o.) | Nerve cell density (number/mm) ([1]; 3 mg/kg p.o. one hour before 5-min ischemia) | Nerve cell density (number/mm) [1, 5] | Nerve cell density (number/mm) [1, 6]
1 | O=C(CN1CCC(C(=O)c2ccc(F)cc2)CC1)c1ccc2ccccc2c1 [Example 12, 2-[4-p-Fluorobenzoyl)piperidinyl]-2'-acetonaphthone hydrochloride] | 213.7 ± 52.3 min | 181.4 ± 43.6 min | 191.1 ± 54.3 min | 143% | 121% | 128% | 62 ± 26 number/mm | 75 ± 32 number/mm | 83 ± 32 number/mm
2 | c1ccc(CC2CCN(CCc3ccc4ccccc4c3)CC2)cc1 [Example 73] |  | 150.4 ± 57.6 min | 275.2 ± 58.2 min |  | 100% | 184% |  | 69 ± 21 number/mm | 49 ± 8 number/mm
3 | O=C(CN1CCC(=Cc2ccc(F)cc2)CC1)c1ccc2ccccc2c1 [Example 74] | 143.3 ± 39.6 min | 205.1 ± 43.6 min | 194.2 ± 49.7 min | 96% | 137% | 130% |  |  | 62 ± 5 number/mm

— EP0288563B1, “CYCLIC AMINE DERIVATIVES” (Eisai Co., Ltd., priority 1986, dated 1988)
